Measured values published in article PMC6017062, “Probing the Inhibitor versus Chaperone Properties of sp^2-Iminosugars towards Human β-Glucocerebrosidase: A Picomolar Chaperone for Gaucher Disease” (Molecules : A Journal of Synthetic Chemistry and Natural …, 2018).
Numbering of substitutions follows the chain as printed. Read-outs that look alike come from different tables or passages of the source.

Legend:
[1] = biological target: T1, human β-glucocerebrosidase (GCase) (Homo sapiens, UniProt P04062, R534H); assay: Purified recombinant human GCase inhibition in vitro; format: biochemical; conditions: for Ki: purified recombinant enzyme (Cerezyme), 4-MU glucopyranoside substrate
T1 construct: purchased Genzyme (Genzyme Japan, Tokyo, Japan) / Sanofi Genzyme, Cambridge, MA, USA Cerezyme
T1 sequence (P04062 40-536 R534H): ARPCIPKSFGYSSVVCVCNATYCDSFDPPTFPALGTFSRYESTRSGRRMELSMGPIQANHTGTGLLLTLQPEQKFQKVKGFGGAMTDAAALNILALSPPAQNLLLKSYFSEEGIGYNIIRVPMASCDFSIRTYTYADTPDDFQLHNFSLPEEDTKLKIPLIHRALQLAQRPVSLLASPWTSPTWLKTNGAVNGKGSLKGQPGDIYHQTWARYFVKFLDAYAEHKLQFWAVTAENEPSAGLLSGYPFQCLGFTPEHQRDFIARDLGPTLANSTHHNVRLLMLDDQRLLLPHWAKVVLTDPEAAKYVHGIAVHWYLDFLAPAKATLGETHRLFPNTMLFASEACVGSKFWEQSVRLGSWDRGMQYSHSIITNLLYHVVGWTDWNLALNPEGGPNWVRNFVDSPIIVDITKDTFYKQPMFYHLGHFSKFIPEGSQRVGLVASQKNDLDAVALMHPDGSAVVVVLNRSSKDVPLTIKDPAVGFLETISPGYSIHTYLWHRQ
Experimental: Comparative assessment of the inhibition abilities of 1–4 against human lysosomal glycosidases in cell lysates (in vitro enzyme assay; see Experimental Section) confirmed the selectivity pattern previously observed for the commercial enzymes: whereas GCase was responsive to μM concentrations of the sp^2-iminosugars, the activity of lysosomal α-glucosidase, α- and β-galactosidases, α- and β-mannosidases, and hexosaminidase was not affected at concentrations of up to 200 μM. The corresponding Ki values were determined at pH 7 and 5 using purified recombinant human GCase and 4-methylumbelliferone (4-MU)-conjugated […] as the substrate (Table 2).
GCase activities were determined as above using purified human GCase, obtained from Genzyme (Genzyme Japan, Tokyo, Japan) in 0.1 M citrate buffer at pH 5 or pH 7 and 4-methylumbelliferone (4-MU)-conjugated β-D-glucopyranoside as the substrate. The reactions were terminated by adding 0.2 mL of 0.2 M glycine sodium hydroxide buffer (pH 10.7). The liberated 4-methylumbelliferone was measured in a black-well plate with a Perkin Elmer Luminescence Spectrometer, Waltham, MA, USA (excitation wavelength: 340 nm; emission: 460 nm).

pKa determination = format: physicochemical
GCase = biological target: T2, GCase (Homo sapiens, UniProt P04062); assay: GCase activity in cultured healthy human fibroblasts; format: cell-based; conditions: 5 days culture
T2 construct: endogenous in cells; host or cells: normal human skin fibroblasts
T2 sequence (P04062 40-536): T1 sequence (P04062 40-536 R534H) with H495R
Experimental: For that purpose, cells were cultured for 5 days in the absence and in the presence of various concentrations of the compounds, then lysed, and the enzyme activity was determined using 4-methylumbelliferyl β-D-glucopyranoside as substrate. Higher GCase activities in the lysate indicate that larger amounts of the protein are present and that it is functional.
(§1) Normal and Gaucher disease patients’ skin fibroblasts were cultured in Dulbecco modified Eagle’s medium (WAKO, Richmond, VA, USA) supplemented with 10% fetal bovine serum (Nichirei Biosci. Inc., Tokyo, Japan) at 37 °C in 5% CO2. For measurement of chaperone activities, fibroblasts were plated onto 35 mm dishes at 50,000 cells per dish. After 24 h incubation, the medium with the indicated concentrations of compound was applied and cells were cultured for 96 h. Then, the lysates in 0.1% Triton-X100/distilled H2O were collected from the cells and assayed for lysosomal GCase as described above. To measure the cytotoxic effect of the compounds, normal human fibroblasts were plated onto 35 mm dishes at 15,000 cells per dish and incubated overnight. Then, the medium was changed with or without compounds. After 24 h incubation, the supernatant of the cells was collected and measured by the lactate dehydrogenase assay (WAKO, Richmond, VA, USA). All the cell lines used were tested for mycoplasma contamination before conducting the chaperone and toxicity assays.

N188S/G183W mutant GCase = biological target: T3, N188S/G183W mutant GCase (Homo sapiens, UniProt P04062, N227S); assay: Chaperone test in N188S/G183W type 3 Gaucher patient fibroblasts; format: cell-based; conditions: N188S/G183W Gaucher fibroblasts
T3 construct: endogenous in cells; host or cells: skin fibroblasts of N188S/G183W type 3 Gaucher patients
T3 sequence (P04062 40-536 N227S): T1 sequence (P04062 40-536 R534H) with N188S, H495R
Description: To test the chaperoning capabilities, Gaucher fibroblasts from patients hosting the adult neuronopathic (type 3) Gaucher disease-associated N188S/G183W mutant GCase were employed. It is worth mentioning that the neuronopathic clinical subtypes of Gaucher disease remain currently at orphan status, given the inability of the recombinant enzyme used in enzyme replacement therapy or the glucosylceramide synthase inhibitor Zavesca® used in substrate reduction therapy to cross the blood–brain barrier. This mutation is located in the catalytic domain (domain III) of GCase and has been previously found to be responsive to sp^2-iminosugar-type chaperones. […] Yet, the activity trend as a function of the chaperone concentration was starkly different between them. Thus, the nonreducing representatives 3 and 4 reached the maximum chaperoning effect at 200 nM and as low as 2 nM concentration, respectively, as compared with 20 and 2 μM for the reducing homologues 1 and 2.
as §1

L444P mutant GCase [2] = system: L444P mutant GCase; design: method as in PMID 22512696; conditions: homozygous L444P Gaucher lymphoblasts; cited from earlier work
L444P mutant GCase [3] = conditions: homozygous L444P Gaucher fibroblasts; cited from earlier work
[4] = pH 5, read-out: Ki human GCase, pH 5
[5] = pH 7, read-out: Ki human GCase, pH 7

SMILES | Ki [1, 4] [µM] | Ki [1, 5] [µM] | pKa (pKa determination) | GCase activity in healthy human fibroblasts over the whole range of concentrations (GCase) | concentration of maximum chaperoning effect (N188S/G183W mutant GCase) [µM] | further results
CCCCCCCCN=C1OCC2C(O)C(O)C(O)C(O)N12 (stereo not shown) [Compound 1] | 54.4 ± 0.38 | 15.1 ± 0.97 | 8.9 | essentially unaltered | 20 | 
CCCCCCCCN=C1SCC2C(O)C(O)C(O)C(O)N12 (stereo not shown) [Compound 2] | 1.05 ± 0.068 | 0.26 ± 0.013 | 8.3 | essentially unaltered | 2 | fold enhancement of GCase inhibition potency upon replacement of O-6 by sulfur, pH 5 ([1]; pH 5, 2 vs 1, 4 vs 3): 52 fold; fold enhancement of GCase inhibition potency upon replacement of O-6 by sulfur, pH 7 ([1]; pH 7, 2 vs 1, 4 vs 3): 58 fold
CCCCCCCC/N=C1/OC[C@@H]2[C@@H](O)[C@H](O)[C@@H](O)CN12 [Compound 3] | 6.3 ± 0.16 | 1.7 ± 0.066 | 9.3 |  | 0.2 | fold stronger GCase inhibition of nonreducing vs reducing partner ([1]; 3 vs 1, 4 vs 2): about 10 fold; GCase activity in lysates of healthy human fibroblasts at 20 μM (GCase; 20 μM): virtually full inhibition; GCase activity in lysates of healthy human fibroblasts at higher concentrations (GCase; concentrations higher than 20 nM): significantly inhibited; concentration over which chaperone/inhibitor balance is unfavorable (net decrease in mutant enzyme activity vs control) (N188S/G183W mutant GCase): over 20 μM
CCCCCCCCCN[C@H]1[C@H](O)[C@@H](O)[C@H](O)[C@@H](O)[C@@H]1OCCCCCCCCC [Compound 19, (1R,2S,3R,4S,5S,6R)-5-(nonylamino)-6-(nonyloxy)cyclohexane-1,2,3,4-tetraol] |  |  |  |  |  | mutant GCase activity enhancement at 10 pM (L444P mutant GCase [2]): 40%
CCCCCCCCCC(=O)OC[C@H](C[C@H]1NC[C@@H](O)[C@H](O)[C@H]1O)OC(=O)CCCCCCCCC [Compound 23] |  |  |  |  |  | mutant GCase activity enhancement at 50 nM (L444P mutant GCase [3]): 100%
